Marks after values point to notes of the source that are not given here.
What was measured:
[1] = Peak absorption wavelength, peak emission wavelength and fluorescent quantum yield; format: physicochemical
Description: Table 2 provides a peak absorption wavelength (λabs maximum), peak emission wavelength (λem maximum), a fluorescent quantum yield (ΦF), and a synthesis yield for the various compounds. The synthesis yield is based on the synthetic pathway illustrated in FIG. 1.

[2] = Emission spectrum on exposure to varying amounts of FeCl3; conditions: for total red-shift in peak emission wavelength: at saturation with Fe^3+
Description: Two substituted chromones (Compound 11 and Compound 20) were dissolved in methanol and exposed to varying amounts of FeCl3 (i.e., Fe^3+). FIG. 4 illustrates the shift in emission spectrum of Compound 11 with increasing amounts of Fe^3+ ions. With about 10 equivalents of Fe^3+ ions, the shift in emission spectrum is saturated, with a total of about a 30 nm red-shift in peak emission wavelength. FIG. 5 illustrates the shift in emission spectrum of Compound 20 with increasing amounts of Fe^3+ ions. With about 10 equivalents of Fe^3+ ions, the shift in emission spectrum is saturated, with a total of about a 50 nm red-shift in peak emission wavelength.
Compound 11 was dissolved in various solvents and then exposed to varying amounts of FeCl3 (i.e., Fe^3+).
(§1) Compound 11 was dissolved in methanol and then exposed to varying amounts of FeCl3 (i.e., Fe^3+) or (NH4)2Fe(SO4)2.6H2O (i.e., Fe^2+). […] Therefore, Compound 11 may be used to detect Fe^3+ while in the presence of Fe^2+.

[3] = Emission spectrum on exposure to varying amounts of (NH4)2Fe(SO4)2.6H2O; conditions: methanol; FIG. 6
Description: as §1

[4] = Emission spectrum on exposure to varying amounts of lead nitrate
Description: Compound 20 was dissolved in methanol and then exposed to varying amounts of […] (i.e., Pb^2+). […] Therefore, a kit, method, system, or the like may utilize a specific solvent system for detection of lead or other Ions. Alternatively, and especially where the metal ion concentration is unknown, a kit, method, system, or the like may utilize a series of solvent systems in parallel to determine a concentration of metal ions.
A 5 μM sample of Compound 25 in 3:1 tetrahydrofuran:methanol or 2:1 tetrahydrofuran:methanol was prepared and exposed to varying amounts of Pb(NO3)2 (i.e., Pb^2+) dissolved in deionized water.

Row | SMILES | ΦF ([1]; solvent dichloromethane) | λabs maximum ([1]; solvent dichloromethane) | λem maximum ([1]; solvent dichloromethane) | further results
1 | COC(=O)C(C)(C)C1Oc2ccc(C)cc2C(=O)/C1=C\NS(=O)(=O)c1ccc(C)cc1 (stereo not drawn) [Compound 19, (Z)-methyl 2-methyl-2-(6-methyl-3-((4-methylphenylsulfonamido)methy-lene)-4-oxochroman-2-yl)propanoate] | 70* % | 367 nm | 492 nm | ΦF ([1]; solvent acetonitrile): 8** %; λabs maximum ([1]; solvent acetonitrile): 380 nm; λem maximum ([1]; solvent acetonitrile): 468 nm; ΦF ([1]; solvent cyclohexane): 27*** %; λabs maximum ([1]; solvent cyclohexane): 364 nm; λem maximum ([1]; solvent cyclohexane): 479 nm
2 | COC(=O)C(C)(C)C1Oc2ccccc2C(=O)/C1=C\O (stereo not drawn) [Compound 5, (Z)-methyl 2-(3-(hydroxymethylene)-4-oxochroman-2-yl)-2-methylpropanoate] | 6* % | 362 nm | 446 nm | –
3 | COC(=O)C(C)(C)C1Oc2ccc(OC)cc2C(=O)/C1=C\O (stereo not drawn) [Compound 11, (Z)-methyl-2-(3-(hydroxymethylene)-6-methoxy-4-oxochroman-2-yl)-2-methylpropanoate] | 20* % | 383 nm | 482 nm | red-shift in peak emission wavelength ([2]; 1:1 methanol:water as solvent): still exhibits a red-shift in peak emission wavelength; amount of Fe^3+ ions at which the shift in emission spectrum is saturated ([2]; methanol): about 10 equivalents; intensity change of peak emission with increasing metal ion concentration ([2]; methanol, FIG. 4): intensity decrease; shift of peak emission wavelength ([2]; methanol, FIG. 4): significant red-shift; total red-shift in peak emission wavelength ([2]; methanol): ~30 nm; red-shift in peak emission wavelength ([2]; polar aprotic solvents: tetrahydrofuran, acetonitrile, acetone): did not exhibit an appreciable red-shift; red-shift in peak emission wavelength ([2]; polar protic solvents: water, methanol, mixtures thereof): exhibited an appreciable red-shift; intensity change of peak emission with increasing metal ion concentration [3]: intensity decrease; shift of peak emission wavelength [3]: does not exhibit appreciable shift
4 | COC(=O)C(C)(C)C1Oc2ccccc2C(=O)/C1=C\NS(=O)(=O)c1ccc(OC)cc1 (stereo not drawn) [Compound 23, (Z)methyl-2-(3-(((4-methoxyphenyl)sulfonamido)methy-lene)-4-oxochroman-2-yl)-2-methylpropanoate] | 38* % | 358 nm | 479 nm | –
5 | COC(=O)C(C)(C)C1Oc2ccc(C)cc2C(=O)/C1=C\NS(=O)(=O)c1ccc(OC)cc1 (stereo not drawn) [Compound 24, (Z)methyl-2-(3-(((4-methoxyphenyl)sulfonamido)methy-lene)-6-methyl-4-oxochroman-2-yl)-2-methylpropanoate] | 72* % | 367 nm | 492 nm | –
6 | COC(=O)C(C)(C)C1Oc2ccc(F)cc2C(=O)/C1=C\NS(=O)(=O)c1ccc(C)cc1 (stereo not drawn) [Compound 16, (Z)-methyl 2-(6-fluoro-3-((4-methylphenylsulfonamido)methy-lene)-4-oxochroman-2-yl)-2-methylpropanoate] | 33* % | 367 nm | 492 nm | –
7 | COC(=O)C(C)(C)C1Oc2ccccc2C(=O)/C1=C\NS(=O)(=O)c1ccc(C)cc1 (stereo not drawn) [Compound 15, (Z)-methyl 2-methyl-2-(3-((4-methylphenylsulfonamido)methy-lene)-4-oxochroman-2-yl)propanoate] | 37* % | 358 nm | 479 nm | –
8 | COC(=O)CC1Oc2ccc(OC)cc2C(=O)/C1=C\NS(=O)(=O)c1ccc(OC)cc1 (stereo not drawn) [Compound 26, (Z)-methyl-2-(6-methoxy-3-(((4-methoxyphenyl)sulfonamido)methy-lene)-4-oxochroman-2-yl)acetate] | 67* % | 386 nm | 529 nm | –
9 | COC(=O)C(C)(C)C1Oc2ccc(OC)cc2C(=O)/C1=C\NS(=O)(=O)c1ccc(C)cc1 (stereo not drawn) [Compound 22, (Z)-methyl-2-(6-methoxy-3-(((4-methylphenyl)sulfonamido)methy-lene)-4-oxochroman-2-yl)-2-methylpropanoate] | 66* % | 390 nm | 529 nm | –
10 | COC(=O)C(C)(C)C1Oc2ccc(F)cc2C(=O)/C1=C\O (stereo not drawn) [Compound 6, (Z)-methyl 2-(6-fluoro-3-(hydroxymethylene)-4-oxochroman-2-yl)-2-methylpropanoate] | 2* % | 364 nm | 486 nm | –
11 | COC(=O)C(C)(C)C1Oc2ccc(C(C)C)cc2C(=O)/C1=C\NS(=O)(=O)c1ccc(C)cc1 (stereo not drawn) [Compound 21, (Z)methyl-2-(6-isopropyl-3-(((4-methylphenyl)sulfonamido)methy-lene)-4-oxochroman-2-yl)-2-methylpropanoate] | 71* % | 368 nm | 490 nm | –
12 | CCc1ccc2c(c1)C(=O)/C(=C\NS(=O)(=O)c1ccc(C)cc1)C(C(C)(C)C(=O)OC)O2 (stereo not drawn) [Compound 20, (Z)-methyl 2-(6-ethyl-3-((4-methylphenylsulfonamido)methy-lene)-4-oxochroman-2-yl)-2-methylpropanoate] | 73* % | 370 nm | 490 nm | ΦF ([1]; solvent acetonitrile): 16** %; λabs maximum ([1]; solvent acetonitrile): 369 nm; λem maximum ([1]; solvent acetonitrile): 496 nm; ΦF ([1]; solvent cyclohexane): 30*** %; λabs maximum ([1]; solvent cyclohexane): 364 nm; λem maximum ([1]; solvent cyclohexane): 481 nm; red-shift in peak emission wavelength ([2]; 1:1 methanol:water as solvent): does not; amount of Fe^3+ ions at which the shift in emission spectrum is saturated ([2]; methanol): about 10 equivalents; total red-shift in peak emission wavelength ([2]; methanol): ~50 nm; amount of Pb^2+ at max shift in peak emission wavelength ([4]; 1:1 tetrahydrofuran:methanol): about 5 equivalents; amount of Pb^2+ at max shift in peak emission wavelength ([4]; 3:1 tetrahydrofuran:methanol): about 3 equivalents; shift in peak emission wavelength ([4]; THF alone): no appreciable shift in peak emission wavelength; amount of Pb^2+ at which the shift in peak emission wavelength maxes out ([4]; methanol): 10 equivalents; shift in peak emission wavelength at 1 equivalent Pb^2+ ([4]; methanol): no appreciable shift; shift in peak emission wavelength at 1 equivalent Pb^2+ ([4]; mixed tetrahydrofuran/methanol): appreciable shift
13 | COC(=O)C(C)(C)C1Oc2ccc(Br)cc2C(=O)/C1=C\NS(=O)(=O)c1ccc(C)cc1 (stereo not drawn) [Compound 18, (Z)-methyl 2-(6-bromo-3-((4-methylphenylsulfonamido)methy-lene)-4-oxochroman-2-yl)-2-methylpropanoate] | 34* % | 343 nm | 483 nm | –
14 | COC(=O)C(C)(C)C1Oc2c(Br)cc(Br)cc2C(=O)/C1=C\O (stereo not drawn) [Compound 14, (Z)-methyl 2-(6,8-dibromo-3-(hydroxymethylene)-4-oxochroman-2-yl)-2-methylpropanoate] | 3* % | 371 nm | 451 nm | –
15 | COC(=O)C(C)(C)C1Oc2ccc(Cl)cc2C(=O)/C1=C\NS(=O)(=O)c1ccc(C)cc1 (stereo not drawn) [Compound 17, (Z)-methyl 2-(6-chloro-3-((4-methylphenylsulfonamido)methy-lene)-4-oxochroman-2-yl)-2-methylpropanoate] | 39* % | 367 nm | 483 nm | –

From patent US10444149B2, “Fluorescent compounds as sensing agents” (OHIO NORTHERN UNIVERSITY, priority 2016, dated 2019)
